The source of these data is US20230295200A1 (REGENTS OF THE UNIVERSITY OF MICHIGAN, priority 2022, published 2023).

Bounds are passed on as bounds.

In test [1] the target is T1, STAT6 protein (Homo sapiens, UniProt P42226).
T1 sequence (P42226 1-847): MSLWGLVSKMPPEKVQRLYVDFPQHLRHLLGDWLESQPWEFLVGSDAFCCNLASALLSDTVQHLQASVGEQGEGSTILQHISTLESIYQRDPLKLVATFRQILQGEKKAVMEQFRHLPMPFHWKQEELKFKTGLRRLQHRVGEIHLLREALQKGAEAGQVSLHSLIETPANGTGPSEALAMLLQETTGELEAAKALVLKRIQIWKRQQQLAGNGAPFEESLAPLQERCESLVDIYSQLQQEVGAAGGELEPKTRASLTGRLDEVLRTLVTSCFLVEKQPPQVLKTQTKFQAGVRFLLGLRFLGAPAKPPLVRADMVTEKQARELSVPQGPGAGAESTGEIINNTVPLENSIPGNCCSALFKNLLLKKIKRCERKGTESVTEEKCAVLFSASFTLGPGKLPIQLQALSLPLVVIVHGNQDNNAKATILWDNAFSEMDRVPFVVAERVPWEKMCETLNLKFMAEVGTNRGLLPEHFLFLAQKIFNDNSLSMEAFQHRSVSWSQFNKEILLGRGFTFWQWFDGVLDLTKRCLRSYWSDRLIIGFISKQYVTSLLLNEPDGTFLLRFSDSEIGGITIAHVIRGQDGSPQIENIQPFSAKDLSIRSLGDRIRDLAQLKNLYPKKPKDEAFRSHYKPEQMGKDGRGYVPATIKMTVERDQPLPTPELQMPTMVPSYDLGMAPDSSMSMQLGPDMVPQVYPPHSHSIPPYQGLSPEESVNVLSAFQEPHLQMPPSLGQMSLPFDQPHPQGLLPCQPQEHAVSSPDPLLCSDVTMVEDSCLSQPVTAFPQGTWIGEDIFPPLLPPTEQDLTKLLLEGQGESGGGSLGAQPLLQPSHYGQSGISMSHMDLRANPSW
As to the kind of experiment: Fluorescence polarization (FP) binding assay, STAT6. The note with it: FP competition, 5 nM fluorescein-labeled tracer, 200 nM protein, PBS pH7.4; read-out: Binding STAT6. Put shortly:
(§1)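 Fluorescence polarization is read after STAT5 or STAT6 protein (200 nM) and a fluorescein-labeled tracer (5 nM) equilibrate for 1 h at room temperature in DTT-containing PBS pH 7.4 with BGG and Tween-20. Inhibition constants are obtained by nonlinear curve fitting.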
In general terms: In fluorescence polarisation assays a small probe gives low polarisation when free and higher when bound to something large.

The target of test [2] is T2, STAT5A (Homo sapiens, UniProt P42229).
T2 sequence (P42229 1-794): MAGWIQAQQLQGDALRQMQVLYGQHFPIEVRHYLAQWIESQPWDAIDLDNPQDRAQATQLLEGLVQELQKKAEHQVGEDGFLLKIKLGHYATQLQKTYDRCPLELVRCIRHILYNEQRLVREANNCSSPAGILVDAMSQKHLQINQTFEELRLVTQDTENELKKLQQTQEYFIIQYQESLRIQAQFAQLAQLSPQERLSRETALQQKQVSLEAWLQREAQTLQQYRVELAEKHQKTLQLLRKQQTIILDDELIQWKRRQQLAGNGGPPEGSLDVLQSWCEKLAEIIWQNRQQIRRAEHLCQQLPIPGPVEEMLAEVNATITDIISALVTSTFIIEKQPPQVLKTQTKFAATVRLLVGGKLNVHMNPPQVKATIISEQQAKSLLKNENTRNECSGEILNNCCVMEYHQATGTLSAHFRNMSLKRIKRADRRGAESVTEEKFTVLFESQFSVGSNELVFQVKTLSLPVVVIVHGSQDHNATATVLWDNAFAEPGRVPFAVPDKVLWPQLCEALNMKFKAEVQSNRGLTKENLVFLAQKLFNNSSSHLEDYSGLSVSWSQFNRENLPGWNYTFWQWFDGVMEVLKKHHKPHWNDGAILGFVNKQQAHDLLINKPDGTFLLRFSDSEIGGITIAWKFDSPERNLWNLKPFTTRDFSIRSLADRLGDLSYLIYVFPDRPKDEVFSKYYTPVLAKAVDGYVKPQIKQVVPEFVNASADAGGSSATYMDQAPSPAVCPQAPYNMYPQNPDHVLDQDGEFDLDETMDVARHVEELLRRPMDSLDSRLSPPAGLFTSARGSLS
As to the kind of experiment: Fluorescence polarization (FP) binding assay, STAT5A. The note with it: FP competition, 5 nM fluorescein-labeled tracer, 200 nM protein, PBS pH7.4. The gist of the method:
as §1

With `CC(C)(C)[C@H](NC(=O)c1cc2cc(C(F)(F)P(=O)(O)O)ccc2s1)C(=O)N1CCC[C@H]1C(=O)N1CCCOC(c2ccccc2)C1` (stereo partly drawn) [Compound 124, ((2-(((2S)-3,3-dimethyl-1-oxo-1-((2S)-2-(2-phenyl-1,4-oxazepane-4-carbonyl)pyrrolidin-1-yl)butan-2-yl)carbamoyl)benzo[b]thiophen-5-yl)difluoromethyl)phosphonic acid], the Ki in test [1] was in the range of 0.1 to 1 µM; in test [2], 1 to 10 µM.
On the same counts, the results for `CC(C)(C)[C@H](NC(=O)c1cc2cc(C(F)(F)P(=O)(O)O)ccc2s1)C(=O)N1CCC[C@H]1C(=O)N1CCCCC(c2ccccc2)C1` (stereo partly drawn) [Compound 125, ((2-(((2S)-3,3-dimethyl-1-oxo-1-((2S)-2-(3-phenylazepane-1-carbonyl)pyrrolidin-1-yl)butan-2-yl)carbamoyl)benzo[b]thiophen-5-yl)difluoromethyl)phosphonic acid] are 0.1 to 1 µM and 1 to 10 µM.
On the same counts, the results for `CC1COC(c2ccccc2)CN1C(=O)[C@@H]1CCCN1C(=O)[C@@H](NC(=O)c1cc2cc(C(F)(F)P(=O)(O)O)ccc2s1)C(C)(C)C` (stereo partly drawn) [Compound 126, ((2-(((2S)-3,3-dimethyl-1-((2S)-2-(5-methyl-2-phenylmorpholine-4-carbonyl)pyrrolidin-1-yl)-1-oxobutan-2-yl)carbamoyl)benzo[b]thiophen-5-yl)difluoromethyl)phosphonic acid] are 0.1 to 1 µM and 1 to 10 µM.
As for `CC(C)(C)[C@H](NC(=O)c1cc2cc(C(F)(F)P(=O)(O)O)ccc2s1)C(=O)N1CCC[C@H]1C(=O)N1CCOC(c2cccs2)C1` (stereo partly drawn) [Compound 127, ((2-(((2S)-3,3-dimethyl-1-oxo-1-((2S)-2-(2-(thiophen-2-yl)morpholine-4-carbonyl)pyrrolidin-1-yl)butan-2-yl)carbamoyl)benzo[b]thiophen-5-yl)difluoromethyl)phosphonic acid], the Ki fell in the range of 0.1 to 1 µM in test [1] and 1 to 10 µM in test [2].
As for `CC(C)(C)[C@H](NC(=O)c1cc2cc(C(F)(F)P(=O)(O)O)ccc2s1)C(=O)N1CCC[C@H]1C(=O)N1CCOC(c2nccs2)C1` (stereo partly drawn) [Compound 128, ((2-(((2S)-3,3-dimethyl-1-oxo-1-((2S)-2-(2-(thiazol-2-yl)morpholine-4-carbonyl)pyrrolidin-1-yl)butan-2-yl)carbamoyl)benzo[b]thiophen-5-yl)difluoromethyl)phosphonic acid], the values for the Ki in test [1] and in test [2] were 1 to 10 µM and greater than 10 µM, respectively.
For `CC(C)(C)[C@H](NC(=O)c1cc2cc(C(F)(F)P(=O)(O)O)ccc2s1)C(=O)N1CCC[C@H]1C(=O)N1CCOC(c2cccc3ccccc23)C1` (stereo partly drawn) [Compound 129, ((2-(((2S)-3,3-dimethyl-1-((2S)-2-(2-(naphthalen-1-yl)morpholine-4-carbonyl)pyrrolidin-1-yl)-1-oxobutan-2-yl)carbamoyl)benzo[b]thiophen-5-yl)difluoromethyl)phosphonic acid], the Ki in test [1] was in the range of 0.1 to 1 µM; in test [2], 1 to 10 µM.
On the same counts, the results for `CC(C)(C)[C@H](NC(=O)c1cc2cc(C(F)(F)P(=O)(O)O)ccc2s1)C(=O)N1CCC[C@H]1C(=O)N1CCOC(c2cccnc2)C1` (stereo partly drawn) [Compound 130, ((2-(((2S)-3,3-dimethyl-1-oxo-1-((2S)-2-(2-(pyridin-3-yl)morpholine-4-carbonyl)pyrrolidin-1-yl)butan-2-yl)carbamoyl)benzo[b]thiophen-5-yl)difluoromethyl)phosphonic acid] are 0.1 to 1 µM and greater than 10 µM.
On the same counts, the results for `CC(C)(C)[C@H](NC(=O)c1cc2cc(C(F)(F)P(=O)(O)O)ccc2s1)C(=O)N1CCC[C@H]1C(=O)N1CCOC(c2ccncc2)C1` (stereo partly drawn) [Compound 131, ((2-(((2S)-3,3-dimethyl-1-oxo-1-((2S)-2-(2-(pyridin-4-yl)morpholine-4-carbonyl)pyrrolidin-1-yl)butan-2-yl)carbamoyl)benzo[b]thiophen-5-yl)difluoromethyl)phosphonic acid] are 1 to 10 µM and greater than 10 µM.
On the same counts, the results for `CC(C)(C)[C@H](NC(=O)c1cc2cc(C(F)(F)P(=O)(O)O)ccc2s1)C(=O)N1CCC[C@H]1C(=O)N1CCSC(c2ccccc2)C1` (stereo partly drawn) [Compound 132, ((2-(((2S)-3,3-dimethyl-1-oxo-1-((2S)-2-(2-phenylthiomorpholine-4-carbonyl)pyrrolidin-1-yl)butan-2-yl)carbamoyl)benzo[b]thiophen-5-yl)difluoromethyl)phosphonic acid] are 0.1 to 1 µM and 0.1 to 1 µM.
As for `CC(C)(C)[C@H](NC(=O)c1cc2cc(C(F)(F)P(=O)(O)O)ccc2s1)C(=O)N1CCC[C@H]1C(=O)N1CCOC(Cc2ccccc2)C1` (stereo partly drawn) [Compound 133, ((2-(((2S)-1-((2S)-2-(2-benzylmorpholine-4-carbonyl)pyrrolidin-1-yl)-3,3-dimethyl-1-oxobutan-2-yl)carbamoyl)benzo[b]thiophen-5-yl)difluoromethyl)phosphonic acid], the Ki is 1 to 10 µM in test [1] and greater than 10 µM in test [2].
On the same counts, the results for `CC(C)(C)[C@H](NC(=O)c1cc2cc(C(F)(F)P(=O)(O)O)ccc2s1)C(=O)N1CCC[C@H]1C(=O)N1CCOC(C2CCCCC2)C1` (stereo partly drawn) [Compound 134, ((2-(((2S)-1-((2S)-2-(2-cyclohexylmorpholine-4-carbonyl)pyrrolidin-1-yl)-3,3-dimethyl-1-oxobutan-2-yl)carbamoyl)benzo[b]thiophen-5-yl)difluoromethyl)phosphonic acid] are 1 to 10 µM and greater than 10 µM.
On the same counts, the results for `CC(C)(C)[C@H](NC(=O)c1cc2cc(C(F)(F)P(=O)(O)O)ccc2s1)C(=O)N1CCC[C@H]1C(=O)N1CCS(=O)(=O)[C@H](c2ccccc2)C1` [Compound 135, ((2-(((S)-1-((S)-2-((R)-1,1-dioxido-2-phenylthiomorpholine-4-carbonyl)pyrrolidin-1-yl)-3,3-dimethyl-1-oxobutan-2-yl)carbamoyl)benzo[b]thiophen-5-yl)difluoromethyl)phosphonic acid] are 0.1 to 1 µM and 1 to 10 µM.
As to `CC(C)(C)[C@H](NC(=O)c1cc2cc(C(F)(F)P(=O)(O)O)ccc2s1)C(=O)N1CCC[C@H]1C(=O)N1CCS(=O)(=O)[C@@H](c2ccccc2)C1` [Compound 136, ((2-(((S)-1-((S)-2-((S)-1,1-dioxido-2-phenylthiomorpholine-4-carbonyl)pyrrolidin-1-yl)-3,3-dimethyl-1-oxobutan-2-yl)carbamoyl)benzo[b]thiophen-5-yl)difluoromethyl)phosphonic acid], the Ki in test [1] is 0.1 to 1 µM; in test [2] it was 1 to 10 µM.
On the same counts, the results for `CC(C)(C)[C@H](NC(=O)c1cc2cc(C(F)(F)P(=O)(O)O)ccc2s1)C(=O)N1CCC[C@H]1C(=O)N1CCC(O)C(c2ccccc2)C1` (stereo partly drawn) [Compound 137, (difluoro(2-(((2S)-1-((2S)-2-(4-hydroxy-3-phenylpiperidine-1-carbonyl)pyrrolidin-1-yl)-3,3-dimethyl-1-oxobutan-2-yl)carbamoyl)benzo[b]thiophen-5-yl)methyl)phosphonic acid] are 1 to 10 µM and greater than 10 µM.
On the same counts, the results for `CC(C)(C)[C@H](NC(=O)c1cc2cc(C(F)(F)P(=O)(O)O)ccc2s1)C(=O)N1CCC[C@H]1C(=O)N1CCOC(c2ccccn2)C1` (stereo partly drawn) [Compound 140, ((2-(((2S)-3,3-dimethyl-1-oxo-1-((2S)-2-(2-(pyridin-2-yl)morpholine-4-carbonyl)pyrrolidin-1-yl)butan-2-yl)carbamoyl)benzo[b]thiophen-5-yl)difluoromethyl)phosphonic acid] are 0.1 to 1 µM and greater than 10 µM.
